The subject of this test is Trypanosoma brucei. Briefly: Treatment of Trypanosoma Brucei-infected mice. Type of test: in vivo, T. brucei (EATRO 110) in mice (CD-1, males). The following applies: for Mice cured/Total: cured = surviving 30 days after all controls dead. An excerpt: Illustrative of the effects of a compound of this invention (i.e., cis-5'-deoxy-5'-(4-amino-2-butenyl )methylaminoadenosine, identified below as MDL Compound) for the treatment of African Trypanosomiasis is an assay using Trypanosoma brucei-infected mice, as follows:
(a) includes those animals that died.
(b) MDL Compound was given intraperitoneally three times per day (8:30
a.m., 12:30 p.m. and 4:30 p.m,) for three consecutive days.
(c) Eflornithine was given in drinking water for three days.
Mice (20-22 g, CD-1, males) were infected with 2.5×10^5 T. brucei (EATRO 110) by intraperitoneal injection. Drug treatment commenced 24 h after infection. Mice surviving for 30 days after all controls were dead were considered cured. This method for drug testing is that of Bacchi et al. (1980) Science 210: 332-334, and successfully predicted the utility of eflornithine in human trypanosomiasis.

The text below walks through data of patent US5416076A, “S-adenosyl methionine decarboxylase inhibitors” (Merrell Dow Pharmaceuticals Inc., priority 1989, dated 1995).

For the compound `NCCCC(N)(C(=O)O)C(F)F` (centres unmarked) [Eflornithine, reference compound], the “Mice cured/Total” value (2% in drinking water for three days) is 3/5.

As for `CN(C/C=C\CN)C[C@H]1O[C@@H](n2cnc3c(N)ncnc32)[C@H](O)[C@@H]1O` [MDL Compound, CIS-5'-DEOXY-5'(4-AMINO-2-BUTENYL)METHYLAMINOADENOSINE], the “Mice cured/Total” value (dose 10 (unit not given), intraperitoneally three times per day for three consecutive days) was 2/5; the “Mice cured/Total” value (dose 20 (unit not given), intraperitoneally three times per day for three consecutive days) is 3/5; the “Mice cured/Total” value (dose 50 (unit not given), intraperitoneally three times per day for three consecutive days) is given as 4/5. Moreover, the “Days of Survival (includes those animals that died)” value (dose 50 (unit not given), intraperitoneally three times per day for three consecutive days, per animal) stood at 12 days.
